Source: patent publication US10065990B2, “Cyclic peptide compound, and preparation method, pharmaceutical composition and use thereof” (HANGZHOU GUANYU BIO-MEDICAL CO., LTD, priority 2013, dated 2018)
Like-named read-outs stand apart in the source and are kept apart here.

Legend:
[1] = molecular target: HDAC3 (Homo sapiens, UniProt O15379); test: HDAC biochemical activity measurement (fluorescent substrate deacetylation);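 further: fluorogenic acetyl-lysine substrate (20 µM) deacetylated by HDAC3, then developer added for 15 min at room temperature, release of fluorophore read at excitation 360 nm, emission 460 nm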
Chain of HDAC3 (O15379 whole entry, species assumed): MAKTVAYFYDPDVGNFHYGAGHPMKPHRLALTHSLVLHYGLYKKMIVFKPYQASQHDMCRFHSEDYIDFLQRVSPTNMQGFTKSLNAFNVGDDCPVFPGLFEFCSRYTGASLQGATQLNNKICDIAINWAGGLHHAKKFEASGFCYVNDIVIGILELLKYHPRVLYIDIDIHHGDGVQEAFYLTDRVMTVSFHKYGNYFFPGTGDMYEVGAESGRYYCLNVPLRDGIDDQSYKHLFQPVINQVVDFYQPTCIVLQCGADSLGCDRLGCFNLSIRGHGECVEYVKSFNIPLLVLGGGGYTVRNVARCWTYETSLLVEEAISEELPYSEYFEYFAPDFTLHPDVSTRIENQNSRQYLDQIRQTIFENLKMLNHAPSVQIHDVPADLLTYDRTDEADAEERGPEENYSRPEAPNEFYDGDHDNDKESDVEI
Chain of HDAC3 (Q9Y618 395-489 partner limits assumed, species assumed): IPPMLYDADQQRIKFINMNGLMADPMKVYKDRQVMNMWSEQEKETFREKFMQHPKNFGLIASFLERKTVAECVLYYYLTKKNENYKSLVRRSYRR

[2] = system: H1975 (non-small cell lung adenocarcinoma); test: MTT cancer cell growth inhibition; assay type: cell-based; conditions: MTT, 72 hours incubation, H1975 cells, read-out: GI50 H1975
Summary of the method: (§1)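 GI50 values come from MTT viability: after 72 h compound exposure (final 10^−5–10^−10 M, three wells each) of cells plated overnight at 1500/well in 10% FBS medium, MTT was given for 4 h. The DMSO-solubilised formazan was then measured at 570 nm.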

[3] = system: KBM5-T315I (human chronic myelogenous leukemia); test: MTT cancer cell growth inhibition; assay type: cell-based; conditions: MTT, 72 hours incubation, KBM5-T315I cells, read-out: GI50 KBM5-T315I
Summary of the method: as §1

[4] = system: K562 (human leukemia cells); test: MTT cancer cell growth inhibition; assay type: cell-based; conditions: MTT, 72 hours incubation, K562 cells, read-out: GI50 K562
Summary of the method: as §1

[5] = system: KBM-5 (human chronic myelogenous leukemia); test: MTT cancer cell growth inhibition; assay type: cell-based; conditions: MTT, 72 hours incubation, KBM-5 cells, read-out: GI50 KBM-5
Summary of the method: as §1

[6] = system: lncap (prostate cancer cells); test: MTT cancer cell growth inhibition; assay type: cell-based; conditions: MTT
Summary of the method: as §1

[7] = molecular target: HDAC2 (Homo sapiens, UniProt Q92769); test: HDAC biochemical activity measurement (fluorescent substrate deacetylation);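 further: HDAC2 enzyme with an acetyl-lysine fluorescent substrate, then developer added, fluorescence read at excitation 360 nm and emission 460 nm, inhibition measured across several compound concentrations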; conditions: 37° C. 30 minutes
Chain of HDAC2 (Q92769 whole entry, species assumed): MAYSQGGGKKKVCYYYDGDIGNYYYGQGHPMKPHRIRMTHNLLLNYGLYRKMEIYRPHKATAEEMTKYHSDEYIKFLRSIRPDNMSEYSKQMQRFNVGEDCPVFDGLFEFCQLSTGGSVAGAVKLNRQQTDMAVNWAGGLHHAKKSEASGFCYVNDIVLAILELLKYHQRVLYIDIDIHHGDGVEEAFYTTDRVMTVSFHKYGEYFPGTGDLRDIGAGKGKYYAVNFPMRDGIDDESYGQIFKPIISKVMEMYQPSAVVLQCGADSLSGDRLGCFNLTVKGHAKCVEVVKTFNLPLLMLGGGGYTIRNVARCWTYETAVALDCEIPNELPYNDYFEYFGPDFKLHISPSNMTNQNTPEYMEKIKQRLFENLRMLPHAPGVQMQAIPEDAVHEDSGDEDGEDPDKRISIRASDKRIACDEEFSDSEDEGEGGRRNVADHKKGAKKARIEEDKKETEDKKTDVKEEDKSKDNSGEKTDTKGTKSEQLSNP

[8] = molecular target: T1, HDAC7 (Homo sapiens, UniProt Q8WUI4); test: as above; conditions: HDAC7; 37° C. 30 minutes;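 further: fluorogenic deacetylation assay using acetyl-lysine substrate at 20 µM, enzyme and compound incubated 30 min at 37 °C, then developer added, fluorescence read at 360/460 nm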
T1 sequence (Q8WUI4 1-952): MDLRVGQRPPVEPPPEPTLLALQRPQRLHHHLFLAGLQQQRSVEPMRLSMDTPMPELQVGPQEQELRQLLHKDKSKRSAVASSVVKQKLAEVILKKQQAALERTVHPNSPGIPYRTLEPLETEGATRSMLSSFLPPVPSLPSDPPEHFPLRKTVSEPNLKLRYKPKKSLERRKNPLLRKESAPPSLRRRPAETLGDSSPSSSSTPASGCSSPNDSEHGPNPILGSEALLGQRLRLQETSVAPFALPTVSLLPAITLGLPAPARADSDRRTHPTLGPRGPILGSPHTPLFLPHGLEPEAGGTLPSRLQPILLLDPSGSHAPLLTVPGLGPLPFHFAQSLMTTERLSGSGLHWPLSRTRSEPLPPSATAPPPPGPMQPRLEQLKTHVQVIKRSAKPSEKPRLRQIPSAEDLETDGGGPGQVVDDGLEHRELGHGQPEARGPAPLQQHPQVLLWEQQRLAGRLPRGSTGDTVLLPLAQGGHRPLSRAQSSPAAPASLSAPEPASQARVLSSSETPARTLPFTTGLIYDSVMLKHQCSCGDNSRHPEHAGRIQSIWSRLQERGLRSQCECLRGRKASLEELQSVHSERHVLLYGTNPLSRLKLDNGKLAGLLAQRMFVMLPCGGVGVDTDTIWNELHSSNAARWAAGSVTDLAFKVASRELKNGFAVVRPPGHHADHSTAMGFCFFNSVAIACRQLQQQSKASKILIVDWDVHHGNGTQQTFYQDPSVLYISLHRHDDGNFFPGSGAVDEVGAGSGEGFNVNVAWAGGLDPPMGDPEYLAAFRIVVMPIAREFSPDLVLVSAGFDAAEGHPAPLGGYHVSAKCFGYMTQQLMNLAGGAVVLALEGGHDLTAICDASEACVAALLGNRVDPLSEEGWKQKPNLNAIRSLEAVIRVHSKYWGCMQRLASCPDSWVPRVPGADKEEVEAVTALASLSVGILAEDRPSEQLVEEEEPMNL

[9] = read-out: IC50 HDAC3, HDAC3, 37° C. 30 minutes
[10] = Homo sapiens, LNCaP, 72 h, 72 hours incubation, read-out: GI50 lnca
[11] = Homo sapiens, LNCaP, 72 h, 72 hours, present invention, read-out: GI50 lncap, a
[12] = Homo sapiens, LNCaP, 72 h, lncap cells, 72 hours incubation, read-out: GI50 lnca

IC50 [1, 9] [µM]	GI50 ([2]; Homo sapiens, NCI-H1975, 72 h) [µM]	GI50 ([3]; Homo sapiens, 72 h) [µM]	GI50 ([4]; Homo sapiens, K562, 72 h) [µM]	GI50 ([5]; Homo sapiens, KBM5, 72 h) [µM]	GI50 [6, 10] [µM]	IC50 [7] [µM]	IC50 HDAC7 [8]	GI50 [6, 11] [µM]	GI50 [2] [µM]	GI50 [3] [µM]	GI50 [4] [µM]	GI50 [5] [µM]	GI50 ([6]; lncap cells, 72 hours incubation, read-out: GI50 lnca) [µM]	IC50 [1] [µM]	GI50 [6, 12] [µM]	Structure (SMILES)
0.038	0.053	0.094	0.034	0.081	0.03	0.038	no activity									C/C=C1\NC(=O)c2cc(F)cc(n2)CNC(=O)C[C@@H](/C=C/CCSC(=O)CCCCCCC)OC(=O)[C@H](C)NC1=O [Compound 61]
0.034	0.039	0.022	0.038	0.082	0.03	0.056	no activity									C/C=C1\NC(=O)c2nc(ccc2F)CNC(=O)C[C@@H](/C=C/CCSC(=O)CCCCCCC)OC(=O)[C@H](C(C)C)NC1=O [Compound 30]
0.034	0.026	0.026	0.083	0.044		0.064	no activity	0.009								C/C=C1\NC(=O)c2cccc(n2)CNC(=O)C[C@@H](/C=C/CCSC(=O)CCCCCCC)OC(=O)[C@H](CC)NC1=O [Compound 9]
0.122						0.043	no activity		0.043	0.083	0.062	0.041	0.03			C/C=C1\NC(=O)c2ncc(SC)c(n2)CNC(=O)C[C@@H](/C=C/CCSC(C)=O)OC(=O)[C@H](C(C)C)NC1=O [Compound 217]
	0.054	0.028	0.071	0.061		0.051	no activity							0.034	0.1	C/C=C1\NC(=O)c2ccc(SC)c(n2)CNC(=O)C[C@@H](/C=C/CCSC(C)=O)OC(=O)[C@H](CC)NC1=O [Compound 179]
0.007	0.034	0.052	0.041	0.049		0.017	no activity	0.003								C/C=C1\NC(=O)c2cccc(n2)CNC(=O)C[C@@H](/C=C/CCSC(C)=O)OC(=O)[C@H](C(C)C)NC1=O [Compound 7]
	0.066	0.036	0.034	0.022		0.041	no activity							0.034	0.02	C/C=C1\NC(=O)c2nc(ccc2SC)CNC(=O)C[C@@H](/C=C/CCSC=O)OC(=O)[C@H](C(C)C)NC1=O [Compound 168]
0.035	0.063	0.092	0.042	0.027		0.019	no activity	0.04							0.04	C/C=C1\NC(=O)c2cccc(n2)CNC(=O)C[C@@H](/C=C/CCSC(=O)CCCCCCC)OC(=O)CNC1=O [Compound 235]
0.087	0.063	0.033	0.012	0.056		0.069	no activity	0.13							0.13	CCCCCCCC(=O)SCC/C=C/[C@@H]1CC(=O)NCc2cccc(n2)C(=O)NCC(=O)N[C@@H](C(C)C)C(=O)O1 [Compound 246]
	0.071	0.068	0.046	0.033		0.035	no activity							0.018	0.05	C/C=C1\NC(=O)c2nc(ccc2SC)CNC(=O)C[C@@H](/C=C/CCSC(=O)CCCCCCC)OC(=O)[C@H](CC)NC1=O [Compound 171]
0.135	0.034	0.039	0.033	0.049	0.03	0.331	no activity									C/C=C1\NC(=O)c2nc(ccc2F)CNC(=O)C[C@@H](/C=C/CCSC(C)=O)OC(=O)[C@H](CCCCN)NC1=O [Compound 72]
	0.051	0.082	0.041	0.071		0.036	no activity	0.025						0.062	0.02	C/C=C1\NC(=O)c2cccc(n2)CNC(=O)C[C@@H](/C=C/CCSC(=O)CCCCCCC)OC(=O)[C@H](CC(C)C)NC1=O [Compound 241]
	0.064	0.027	0.053	0.015		0.052	no activity							0.038	0.06	C=C1NC(=O)c2cc(SC)cc(n2)CNC(=O)C[C@@H](/C=C/CCSC(C)=O)OC(=O)[C@H](C(C)C)NC1=O [Compound 205]
	0.034	0.059	0.033	0.094	0.03	0.032	no activity							0.041		C/C=C1\NC(=O)c2nc(ccc2F)CNC(=O)C[C@@H](/C=C/CCSC(=O)CC)OC(=O)[C@H](C(C)C)NC1=O [Example 45]
0.052	0.028	0.012	0.083	0.011		0.074	no activity	0.86							0.86	CCCCCCCC(=O)SCC/C=C/[C@@H]1CC(=O)NCc2cccc(n2)C(=O)NC(CC)C(=O)N[C@@H](C(C)C)C(=O)O1 (stereo partly drawn) [Compound 245]
0.038	0.061	0.067	0.027	0.088	0.03	0.062	no activity									C/C=C1\NC(=O)c2cc(F)cc(n2)CNC(=O)C[C@@H](/C=C/CCSC=O)OC(=O)[C@H](C(C)C)NC1=O [Compound 52]
0.045	0.042	0.026	0.063	0.062	0.02	0.055	no activity	0.025								C/C=C1\NC(=O)c2cccc(n2)CNC(=O)C[C@@H](/C=C/CCSC(=O)CCCCCCC)OC(=O)[C@H](C)NC1=O [Compound 11]
	0.041	0.026	0.034	0.072	0.39	0.054	no activity							0.061		C/C=C1\NC(=O)c2cccc(n2)NC(=O)C[C@@H](/C=C/CCSC(C)=O)OC(=O)[C@H](C(C)C)NC1=O [Example 22]
0.029	0.061	0.082	0.026	0.069	0.03	0.021	no activity									C/C=C1\NC(=O)c2cc(F)cc(n2)CNC(=O)C[C@@H](/C=C/CCSC(C)=O)OC(=O)[C@H](CC)NC1=O [Compound 58]
	0.034	0.057	0.053	0.093	0.04	0.058	no activity							0.039		C/C=C1\NC(=O)c2nc(ccc2F)CNC(=O)C[C@@H](/C=C/CCSC(C)=O)OC(=O)[C@H](C)NC1=O [Example 63]
